Experimental data taken from patent US9701627B2, “LRRK2 GTP binding inhibitors for treatment of Parkinson's disease and neuroinflammatory disorders” (University of Maryland, Baltimore, priority 2014, dated 2017).

How the values were obtained:
LRRK2 [1] = assay: LRRK2 GTP binding assay (GTP-agarose pull-down from lysates of transfected HEK293T cells); design: species or system human; details: for effect on wild type and PD-linked mutant LRRK2 GTP-binding activity: 10 μM
Description: LRRK2 kinase assay was adapted from previous studies using autophosphorylation of cell lysates or brain homogenates. Briefly, HEK 293T were transiently transfected with various LRRK2 variants or kinase domain fragments for 36 h, followed by […] serum starvation for 12 h, and then treated with compound 70 and 68 for 1 h. The cells were harvested using lysis buffer (Cell Signaling). Mouse brains were homogenated using RIPA buffer (Cell Signaling). The resulting cell lysates or brain homogenates were immunoprecipitated using anti-Flag antibodies. The immunoprecipitates were subjected to Western blot using anti-phosphorylation LRRK2 antibodies at S935 and S2032 residues as described previously. In some cases, immunoprecipitates were incubated with kinase reaction buffer for 90 min at 30° C. containing 50 mM MgCl2, 500 μM ATP, and 10 μCi of [γ-^32P]ATP (3,000 Ci/mmol) followed by 4-12% SDS/PAGE separation and blotted onto PVDF membranes. Quantification was performed with a phosphoimager (Bio-Rad Molecular Imager FX). GTP binding assays were performed. […] The resulting beads were washed three times with cell lysis buffer, and bound protein was eluted by adding SDS-PAGE sample buffer and heating for 10 min at 72° C. Precipitates were subjected to Western blot analysis using anti-Flag antibodies.
GTP binding assays were performed using GTP-agarose beads (Sigma) as described previously. Lysates of HEK 293T cells expressing LRRK2 proteins were incubated with 68 or FX2149 at various concentrations for 1 h. The GTP-agarose beads were added for an additional 2 h. The samples were subjected to Western blot analysis using anti-Flag antibodies. LRRK2 kinase assays were performed using LRRK2 phosphorylation and in vitro ^32P incorporation methods as described previously.

G2019S-LRRK2 = biological target: T1, G2019S-LRRK2 (Homo sapiens, UniProt Q5S007, G2019S); assay: LRRK2 phosphorylation (kinase) assay in HEK293T cells expressing G2019S-LRRK2; format: cell-based; details: 1 h
T1 construct: expressed in transfected cells; host or cells: HEK293T
Description: LRRK2 kinase assay was adapted from previous studies using autophosphorylation of cell lysates or brain homogenates. Briefly, HEK 293T were transiently transfected with various LRRK2 variants or kinase domain fragments for 36 h, followed by no serum starvation for 12 h, and then treated with compound 70 and 68 for 1 h. The cells were harvested using lysis buffer (Cell Signaling). Mouse brains were homogenated using RIPA buffer (Cell Signaling). The resulting cell lysates or brain homogenates were immunoprecipitated using anti-Flag antibodies. The immunoprecipitates were subjected to Western blot using anti-phosphorylation LRRK2 antibodies at S935 and S2032 residues as described previously. In some cases, immunoprecipitates were incubated with kinase reaction buffer for 90 min at 30° C. containing 50 mM MgCl2, 500 μM ATP, and 10 μCi of [γ-^32P]ATP (3,000 Ci/mmol) followed by 4-12% SDS/PAGE separation and blotted onto PVDF membranes. Quantification was performed with a phosphoimager (Bio-Rad Molecular Imager FX). GTP binding assays were performed. […]
For LRRK2 phosphorylation assays, HEK293T cells were transfected with various LRRK2 variants for 36 h, then were incubated in media without serum for 12 hours. […] The LRRK2 autophosphorylation with ^32P incorporation was separated by SDS/PAGE gel and quantified with a phosphoimager (Bio-Rad Molecular Imager).

[2] = tested on: SH-SY5Y cells expressing G2019S-LRRK2; assay: SH-SY5Y cell viability assay (G2019S-LRRK2-induced neuronal degeneration); format: cell-based, human
Description: Mouse primary cortical neurons were derived from CD-1 outbred mice (The Jackson Laboratory) at embryonic day 16 and cultured on 24 well plates coated with laminin- and poly-D-lysine-coated plates (BD Biosource, San Diego). Neurons were grown in neurobasal medium containing B-27 supplement, Glutamax, and penicillin/streptomycin. LRRK2 constructs were transfected into mouse primary cortical neurons using Lipofectamine 2000 (Invitrogen) according to the manufacturer's protocol. Cell viability assays were conducted. pcDNA3.1-GFP and FLAG-LRRK2 constructs at 1:15 ratio were cotransfected into SH-SY5Y cells (neurons) in 10% FBS OPTI-I media for 24 h. The media were changed to DMEM containing N2 supplement for 24 h. Cell viability was measured by counting GFP-positive viable cells (neurons) from 20 randomly selected fields using fluorescence microscopy. Viable cells (neurons) with one smooth extension (neurite) twice the length of the cell body were counted.
SH-SY5Y cell viability assays were conducted as described. […] Cell viability was measured by counting the healthy viable cells that contained at least one smooth extension (neurite) that was twice the length of the cell body from 20 randomly selected fields using fluorescence microscopy. […] The quantification for LRRK2 toxicity was performed by an investigator who was blind to transfection groups.

[3] = tested on: SH-SY5Y cells expressing mutant G2019S-LRRK2; assay: TUNEL assay in SH-SY5Y cells expressing mutant LRRK2; format: cell-based, human; details: 100 nM
Description: Expression of mutant G2019S-LRRK2 led to neuronal degeneration in both SH-SY5Y and mouse primary cortical neurons as assessed by cell viability and DNA fragmentation (TUNEL) assays as previously described. […] To further confirm these findings, mouse primary cortical neurons were used to assess the effects of 70 and 68. Treatment of 70 (2 and 5 nM) and 68 (5 and 10 nM) protected against mutant LRRK2-induced neuronal degeneration (FIG. 15, panels (a) and (c)). Moreover, 70 and 68 both decreased the TUNEL-positive SH-SY5Y cells expressing mutant LRRK2 (FIG. 15, panel (d)).
SH-SY5Y cell viability assays were conducted as described. Cells were co-transfected with GFP and various pcDNA3.1-LRRK2 plasmids at a 1:15 ratio for 24 h in 10% FBS OPTI-I media and then changed to DMEM with N2 supplement for 24 h. Compounds were added after 4-h transfection. Cell viability was measured by counting the healthy viable cells that contained at least one smooth extension (neurite) that was twice the length of the cell body from 20 randomly selected fields using fluorescence microscopy. TUNEL assays were performed according to the manufacturer's instructions as described previously. The experiments were repeated three times in duplicate. The quantification for LRRK2 toxicity was performed by an investigator who was blind to transfection groups.

LRRK2 [4] = biological target: T2, LRRK2 (Mus musculus, UniProt Q5S006, G2019S); assay: brain LRRK2 GTP binding in G2019S-LRRK2-BAC transgenic mice; format: in vivo; details: for effect on brain LRRK2 GTP binding activity: 1 h after injection
T2 construct: tissue Jackson Laboratory 012467; host or cells: brain homogenate of G2019S-LRRK2-BAC transgenic mice
Description: (§1) To assess whether 70 and 68 alter LRRK2 activities in vivo, G2019S-LRRK2-BAC transgenic mice were used. […] Only the effects of 68 on LRRK2 functions were tested in vivo using G2019S-LRRK2-BAC transgenic mice. Vehicle or 68 at 10 and 20 mg/kg was injected intraperitoneally for one hour. Mouse brain homogenates were subjected to LRRK2 autophosphorylation and GTP binding assays.
LRRK2 kinase assay was adapted from previous studies using autophosphorylation of cell lysates or brain homogenates. Briefly, HEK 293T were transiently transfected with various LRRK2 variants or kinase domain fragments for 36 h, followed by […] serum starvation for 12 h, and then treated with compound 70 and 68 for 1 h. The cells were harvested using lysis buffer (Cell Signaling). Mouse brains were homogenated using RIPA buffer (Cell Signaling). The resulting cell lysates or brain homogenates were immunoprecipitated using anti-Flag antibodies. The immunoprecipitates were subjected to Western blot using anti-phosphorylation LRRK2 antibodies at S935 and S2032 residues as described previously. In some cases, immunoprecipitates were incubated with kinase reaction buffer for 90 min at 30° C. containing 50 mM MgCl2, 500 μM ATP, and 10 μCi of [γ-^32P]ATP (3,000 Ci/mmol) followed by 4-12% SDS/PAGE separation and blotted onto PVDF membranes. Quantification was performed with a phosphoimager (Bio-Rad Molecular Imager FX). GTP binding assays were performed. Cell lysates or brain homogenates (100 μg protein/per reaction) were incubated with vehicle or compounds at 1-50 μM concentration for 1 h followed by addition of GTP-agarose beads (Sigma) for an additional 2 h at 4° C. The resulting beads were washed three times with cell lysis buffer, and bound protein was eluted by adding SDS-PAGE sample buffer and heating for 10 min at 72° C. Precipitates were subjected to Western blot analysis using anti-Flag antibodies.
To assess the effects of FX2149 on LRRK2 in brains compared with 68, both 68 and FX2149 were injected intraperitoneally into G2019S-BAC-LRRK2 transgenic mice at 10 and 20 mg/kg doses. One hour after the injection, the mouse brain homogenates were subjected to LRRK2 GTP binding and kinase assays. Both 68 (20 mg/kg) and FX2149 (10 mg/kg) reduced LRRK2 GTP binding activity in mouse brains (FIGS. 32 and 33). […] To further confirm the effect of FX2149, we also assessed a LRRK2 downstream effector, 4E-BP phosphorylation. 4E-BP is a […] that can be phosphorylated by LRRK2. […] FX2149 at a 10 mg/kg dose reduced 4E-BP up to 15% of the untreated control group, while 68 at a 20 mg/kg dose reduced 4E-BP up to 15% of the untreated control group.

LRRK2 [5] = biological target: T2, LRRK2; assay: brain LRRK2 phosphorylation (kinase activity) in G2019S-LRRK2-BAC transgenic mice; format: in vivo; details: 1 h after injection
Description: as §1
LRRK2 kinase assay was adapted from previous studies using autophosphorylation of cell lysates or brain homogenates. Briefly, HEK 293T were transiently transfected with various LRRK2 variants or kinase domain fragments for 36 h, followed by no serum starvation for 12 h, and then treated with compound 70 and 68 for 1 h. The cells were harvested using lysis buffer (Cell Signaling). Mouse brains were homogenated using RIPA buffer (Cell Signaling). The resulting cell lysates or brain homogenates were immunoprecipitated using anti-Flag antibodies. […] Quantification was performed with a phosphoimager (Bio-Rad Molecular Imager FX). […]
To assess the effects of FX2149 on LRRK2 in brains compared with 68, both 68 and FX2149 were injected intraperitoneally into G2019S-BAC-LRRK2 transgenic mice at 10 and 20 mg/kg doses. […] To further confirm the effect of FX2149, we also assessed a LRRK2 downstream effector, 4E-BP phosphorylation. […]

[6] = tested on: LPS-induced microglia activation and LRRK2 upregulation; assay: LPS-based mouse neuroinflammation model, immunohistochemistry of substantia nigra; format: in vivo
Description: G2019S-LRRK2-BAC (Jackson, Lab. Cat: 012467) transgenic mice were food deprived for 4 h before surgery. There were 4 to 6 mice in each experimental group. Mice were anesthetized with isoflurane. LPS ([…] containing 15,000 endotoxin units, Sigma) was injected into the substantia nigra pars compacta unilaterally with a 1 μl volume at 0.2 μl/min flow rate as described previously. The stereotaxic coordinates were −3.4 anteroposterior (AP), −1.1 ML, and −3.9 DV with respect to bregma. After injection, the needle was kept in place for 5 min before withdrawal to avoid LPS leakage up the cannula track. […] Then 68 was injected twice daily for three days. The mice were perfused with 4% paraformaldehyde (PFA) in PBS and the brains were dissected and frozen in isopentane and stored in a −80° C. freezer for immunostaining Animal usage was approved by the University of Maryland School of Pharmacy.
Mice were perfused with saline and 4% paraformaldehyde. Frozen mouse brains were sectioned through the substantia nigra at 30 μm and the sections were subjected to immunohistochemical analysis as described previously. Briefly, frozen sections were placed in 0.6% H2O2 in methanol for 10 min followed by 5% normal goat serum (Sigma) to block non-specific reactions. Sections were then sequentially incubated with primary antibodies and biotinylated anti-rabbit secondary antibodies (Vector Laboratories) and avidin-biotin-peroxidase complex (ABC Elite kit, Vector Laboratories). Anti-LRRK2 (MJFF), anti-phosphorylated LRRK2 S935 (MJFF), and anti-isolectin antibodies were used as primary antibodies. Isolectin-B4:FITC or Isolectin-B4:Biotin were from Sigma. Some tissue sections were visualized by peroxidase reaction using diaminobenzidine (DAB, Sigma). Some tissue sections were probed with Alexa Fluor 488 goat anti-mouse (rabbit) IgG and Alexa Fluor 568 goat anti-mouse (rabbit) IgG (Invitrogen) as secondary antibodies. The specificity of the immunostaining was checked by incubating adjacent sections with each preabsorbed primary antibody. […] The density of red and green fluorescence in the 6 consecutive sections crossing the LPS injection site of each mouse was quantified using NIH image-J software. Six microscope field images (20×) from one brain section were subjected to fluorescence density quantification. […]
G2019S-LRRK2-BAC transgenic mice were anesthetized with isoflurane and injected with LPS (15,000 endotoxin units, 5 μg, Sigma) for each mouse in the substantia nigra pars compacta (SN) unilaterally as described previously. […] Some sections were added with anti-rabbit (mouse) biotinylated secondary antibody and avidin-biotin-peroxidase complex (Vector Laboratories), and detected by diaminobenzidine (DAB, Sigma). […]

T2 sequence (Q5S006 whole entry G2019S): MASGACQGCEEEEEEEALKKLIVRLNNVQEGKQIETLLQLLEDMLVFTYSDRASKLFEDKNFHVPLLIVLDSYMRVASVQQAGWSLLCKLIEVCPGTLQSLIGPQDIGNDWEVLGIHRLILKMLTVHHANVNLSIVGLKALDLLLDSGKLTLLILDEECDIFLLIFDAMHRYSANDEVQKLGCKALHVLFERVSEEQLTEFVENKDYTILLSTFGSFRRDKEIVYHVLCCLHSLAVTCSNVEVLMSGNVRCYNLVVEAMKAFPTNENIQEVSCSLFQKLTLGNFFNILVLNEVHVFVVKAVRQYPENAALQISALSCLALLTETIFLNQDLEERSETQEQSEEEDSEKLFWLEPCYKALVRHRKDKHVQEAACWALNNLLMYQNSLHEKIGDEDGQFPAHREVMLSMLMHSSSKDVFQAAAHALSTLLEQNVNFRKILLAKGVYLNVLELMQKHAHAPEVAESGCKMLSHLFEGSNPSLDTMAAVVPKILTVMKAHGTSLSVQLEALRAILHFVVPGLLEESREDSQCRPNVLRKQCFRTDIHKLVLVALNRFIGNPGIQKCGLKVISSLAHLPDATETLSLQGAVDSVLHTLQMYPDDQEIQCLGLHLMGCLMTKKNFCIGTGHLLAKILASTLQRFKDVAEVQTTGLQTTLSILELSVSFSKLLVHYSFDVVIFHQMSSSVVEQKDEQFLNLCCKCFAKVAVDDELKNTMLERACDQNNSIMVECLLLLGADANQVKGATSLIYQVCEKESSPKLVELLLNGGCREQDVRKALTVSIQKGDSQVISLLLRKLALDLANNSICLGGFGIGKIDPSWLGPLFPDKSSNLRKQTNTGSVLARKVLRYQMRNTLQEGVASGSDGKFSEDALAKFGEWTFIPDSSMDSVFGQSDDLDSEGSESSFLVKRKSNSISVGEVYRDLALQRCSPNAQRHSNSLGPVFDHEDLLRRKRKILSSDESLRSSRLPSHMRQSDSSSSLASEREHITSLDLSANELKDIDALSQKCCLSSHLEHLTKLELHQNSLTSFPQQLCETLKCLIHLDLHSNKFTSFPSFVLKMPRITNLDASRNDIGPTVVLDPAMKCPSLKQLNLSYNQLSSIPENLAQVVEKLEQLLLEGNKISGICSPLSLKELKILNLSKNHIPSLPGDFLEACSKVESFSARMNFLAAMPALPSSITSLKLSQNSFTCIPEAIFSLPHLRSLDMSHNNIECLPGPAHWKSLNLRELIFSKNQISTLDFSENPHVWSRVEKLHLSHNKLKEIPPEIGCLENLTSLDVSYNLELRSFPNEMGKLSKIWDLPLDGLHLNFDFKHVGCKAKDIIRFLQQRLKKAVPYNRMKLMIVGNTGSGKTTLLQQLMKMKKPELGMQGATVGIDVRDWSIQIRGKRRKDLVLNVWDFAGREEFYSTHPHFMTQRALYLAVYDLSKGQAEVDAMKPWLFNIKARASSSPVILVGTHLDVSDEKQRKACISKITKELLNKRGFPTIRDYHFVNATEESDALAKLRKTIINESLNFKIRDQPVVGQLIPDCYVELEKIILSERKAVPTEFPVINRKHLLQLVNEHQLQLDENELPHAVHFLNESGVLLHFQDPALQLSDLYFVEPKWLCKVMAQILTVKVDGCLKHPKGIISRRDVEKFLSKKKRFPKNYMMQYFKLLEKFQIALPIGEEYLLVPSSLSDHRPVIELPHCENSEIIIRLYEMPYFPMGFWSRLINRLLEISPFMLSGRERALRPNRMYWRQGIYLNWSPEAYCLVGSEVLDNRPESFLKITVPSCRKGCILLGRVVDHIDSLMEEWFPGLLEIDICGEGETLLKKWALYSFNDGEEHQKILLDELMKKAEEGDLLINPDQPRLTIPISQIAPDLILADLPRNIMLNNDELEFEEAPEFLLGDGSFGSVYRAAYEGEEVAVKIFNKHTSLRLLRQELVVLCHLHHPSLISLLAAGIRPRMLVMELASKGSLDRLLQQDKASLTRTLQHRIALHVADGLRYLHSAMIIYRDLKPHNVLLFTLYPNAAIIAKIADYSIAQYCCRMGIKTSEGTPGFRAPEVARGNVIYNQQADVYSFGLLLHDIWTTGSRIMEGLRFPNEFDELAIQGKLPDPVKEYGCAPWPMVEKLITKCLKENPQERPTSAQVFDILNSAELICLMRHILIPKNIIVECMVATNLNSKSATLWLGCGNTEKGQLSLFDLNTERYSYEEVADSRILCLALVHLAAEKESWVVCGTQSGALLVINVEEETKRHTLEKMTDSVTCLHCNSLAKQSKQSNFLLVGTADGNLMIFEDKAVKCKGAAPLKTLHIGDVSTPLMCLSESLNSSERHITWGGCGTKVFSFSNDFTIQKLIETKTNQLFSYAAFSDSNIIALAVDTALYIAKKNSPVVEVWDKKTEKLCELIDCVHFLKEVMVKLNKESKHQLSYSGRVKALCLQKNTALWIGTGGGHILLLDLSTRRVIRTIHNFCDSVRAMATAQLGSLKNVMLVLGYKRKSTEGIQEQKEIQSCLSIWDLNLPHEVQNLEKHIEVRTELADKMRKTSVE
T1 sequence (Q5S007 whole entry G2019S): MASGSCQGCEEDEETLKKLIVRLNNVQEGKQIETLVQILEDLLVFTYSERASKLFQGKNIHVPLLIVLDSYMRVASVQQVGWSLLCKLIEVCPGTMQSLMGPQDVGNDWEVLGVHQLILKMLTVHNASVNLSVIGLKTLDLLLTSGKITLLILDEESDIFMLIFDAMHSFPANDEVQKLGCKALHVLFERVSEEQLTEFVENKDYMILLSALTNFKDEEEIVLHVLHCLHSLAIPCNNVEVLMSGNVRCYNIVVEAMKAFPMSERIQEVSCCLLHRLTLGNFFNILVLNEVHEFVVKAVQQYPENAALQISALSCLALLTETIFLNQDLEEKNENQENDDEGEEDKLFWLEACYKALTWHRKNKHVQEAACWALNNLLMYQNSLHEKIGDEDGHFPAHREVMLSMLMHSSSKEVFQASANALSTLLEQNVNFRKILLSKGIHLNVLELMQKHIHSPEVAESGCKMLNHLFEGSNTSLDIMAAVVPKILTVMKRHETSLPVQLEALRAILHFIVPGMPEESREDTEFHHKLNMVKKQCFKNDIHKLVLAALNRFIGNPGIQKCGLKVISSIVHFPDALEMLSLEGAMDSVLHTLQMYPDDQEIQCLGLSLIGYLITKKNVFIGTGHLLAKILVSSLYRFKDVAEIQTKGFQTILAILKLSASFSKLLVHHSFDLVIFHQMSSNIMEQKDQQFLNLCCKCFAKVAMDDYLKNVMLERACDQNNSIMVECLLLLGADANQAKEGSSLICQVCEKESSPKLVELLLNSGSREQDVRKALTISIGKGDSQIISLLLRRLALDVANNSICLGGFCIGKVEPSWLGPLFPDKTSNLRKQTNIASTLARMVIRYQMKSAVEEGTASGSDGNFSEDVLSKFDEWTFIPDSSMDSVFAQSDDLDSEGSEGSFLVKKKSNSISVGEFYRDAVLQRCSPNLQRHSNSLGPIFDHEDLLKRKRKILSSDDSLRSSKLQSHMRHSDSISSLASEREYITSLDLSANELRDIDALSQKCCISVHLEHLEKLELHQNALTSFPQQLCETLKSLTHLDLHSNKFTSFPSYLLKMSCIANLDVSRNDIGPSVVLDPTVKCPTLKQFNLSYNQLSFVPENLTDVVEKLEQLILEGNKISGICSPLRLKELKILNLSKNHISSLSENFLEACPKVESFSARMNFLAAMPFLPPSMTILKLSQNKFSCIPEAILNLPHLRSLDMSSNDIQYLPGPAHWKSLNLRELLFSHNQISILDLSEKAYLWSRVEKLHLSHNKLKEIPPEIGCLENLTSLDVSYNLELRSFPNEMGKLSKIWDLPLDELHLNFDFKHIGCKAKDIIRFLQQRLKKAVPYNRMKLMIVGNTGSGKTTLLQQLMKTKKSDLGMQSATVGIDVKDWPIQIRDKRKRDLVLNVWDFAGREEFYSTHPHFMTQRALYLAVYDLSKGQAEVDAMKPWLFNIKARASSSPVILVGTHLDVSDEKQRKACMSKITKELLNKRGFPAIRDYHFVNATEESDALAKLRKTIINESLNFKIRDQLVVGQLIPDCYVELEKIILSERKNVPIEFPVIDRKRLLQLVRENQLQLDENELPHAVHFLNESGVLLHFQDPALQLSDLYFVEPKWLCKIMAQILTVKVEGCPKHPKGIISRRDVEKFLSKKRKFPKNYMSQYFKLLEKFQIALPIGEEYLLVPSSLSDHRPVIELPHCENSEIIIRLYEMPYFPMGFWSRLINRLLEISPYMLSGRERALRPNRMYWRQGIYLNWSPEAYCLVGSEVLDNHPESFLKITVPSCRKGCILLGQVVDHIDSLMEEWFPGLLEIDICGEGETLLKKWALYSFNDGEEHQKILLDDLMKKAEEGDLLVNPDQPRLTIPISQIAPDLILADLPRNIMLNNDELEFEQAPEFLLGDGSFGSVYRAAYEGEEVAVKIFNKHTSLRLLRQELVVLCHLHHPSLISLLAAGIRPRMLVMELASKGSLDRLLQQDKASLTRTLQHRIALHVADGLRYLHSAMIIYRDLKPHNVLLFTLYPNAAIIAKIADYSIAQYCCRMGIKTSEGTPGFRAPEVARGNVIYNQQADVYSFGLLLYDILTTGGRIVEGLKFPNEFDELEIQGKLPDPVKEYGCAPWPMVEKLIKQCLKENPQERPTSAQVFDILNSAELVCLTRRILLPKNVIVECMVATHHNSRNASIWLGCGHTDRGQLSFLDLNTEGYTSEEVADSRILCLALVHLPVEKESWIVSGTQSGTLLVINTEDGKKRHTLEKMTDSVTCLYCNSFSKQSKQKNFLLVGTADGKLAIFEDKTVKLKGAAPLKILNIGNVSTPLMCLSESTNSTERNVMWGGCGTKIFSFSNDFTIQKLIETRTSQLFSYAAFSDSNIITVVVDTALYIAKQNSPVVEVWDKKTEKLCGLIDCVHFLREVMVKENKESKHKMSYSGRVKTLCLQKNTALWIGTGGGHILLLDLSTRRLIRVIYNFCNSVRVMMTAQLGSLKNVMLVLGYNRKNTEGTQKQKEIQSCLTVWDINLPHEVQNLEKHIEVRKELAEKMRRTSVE

CCCNC(=O)c1cccc(NS(=O)(=O)c2cccnc2)c1 [FX2149, N-propyl-3-(pyridine-3-sulfonamido)benzamide]
reduction of LRRK2 GTP binding activity (LRRK2 [1]; 10 nM): ~90%
effect on LRRK2 binding with GTP (LRRK2 [1]; 1 and 10 nM): significantly reduced
effect on mutant LRRK2 variants (G2019S and R1441C) bound with GTP (LRRK2 [1]; 1 and 10 nM): reduced
reduction of G2019S-LRRK2 kinase activity (phosphorylation at S935 and S2032) (G2019S-LRRK2; 100 nM): ~90%
protection against mutant LRRK2-induced neurodegeneration ([2]; 50-200 nM): protected
viability of cells expressing G2019S-LRRK2 compared with vehicle treated cells ([2]; treated for 48 hours): significantly increased
TUNEL-positive cells expressing mutant G2019S-LRRK2 [3]: significantly reduced
effect on brain LRRK2 GTP binding activity (LRRK2 [4]; 10 mg/kg i.p.): reduced
brain (BBB) penetration inferred from brain LRRK2 GTP binding and kinase inhibition (LRRK2 [4]; after i.p. injection): taken up into brains at a greater extent
improvement of in vivo efficacy over 68 (LRRK2 [4]; mouse, in vivo): more than 2 fold
effect on brain LRRK2 kinase activity (LRRK2 [5]; 10 mg/kg i.p.): significantly reduced
reduction of LPS-induced microglia activation compared with vehicle treated LPS mice ([6]; 10 mg/kg): 57%
LPS-induced LRRK2-positive immunostaining compared with vehicle controls ([6]; 10 mg/kg i.p.): significantly reduced
anti-phosphorylated-LRRK2 immunoactivity ([6]; 10 mg/kg i.p.): significantly reduced
isolectin B4 immunoactivity compared with the LPS alone treated group ([6]; 10 mg/kg i.p., twice daily for three days): ~43%

CC(C)NC(=O)c1cccc(NS(=O)(=O)c2cccnc2)c1 [FX2151, N-isopropyl-3-(pyridine-3-sulfonamido)benzamide]
effect on wild type and PD-linked mutant LRRK2 GTP-binding activity (LRRK2 [1]): did not alter
effect on LRRK2 phosphorylation (G2019S-LRRK2; 10 μM): did not alter
effect on brain LRRK2 GTP binding activity (LRRK2 [4]; 20 mg/kg i.p.): did not alter
effect on brain LRRK2 phosphorylation (kinase activity) (LRRK2 [5]; 20 mg/kg i.p.): did not alter

O=C1Nc2ccc(I)cc2/C1=C/c1cc(Br)c(O)c(Br)c1 [GW5074, reference compound]
effect on wild type and PD-linked mutant LRRK2 GTP-binding activity (LRRK2 [1]): did not alter
